Measurements taken from patent US5215916A, “Super glucocorticoid receptors: receptors with increased affinity and specificity for glucocorticoid steriods” (priority 1991, dated 1993).
Where a chain is given by its changes, count along the chain named.

Assays:
[1] = target: T1, C640S mutant glucocorticoid receptor (Rattus norvegicus, UniProt P06536, C640S/D98G); test: Competition binding assay with [3H]Dex, COS-7 cytosol, C640S receptor
T1 construct: Thus the full length receptor was removed from the VARO vector with BamHI and inserted into the SVL vector; expressed in transfected cells; host or cells: COS-7 (cytosol)
T1 sequence (P06536 1-795 D98G/C640S): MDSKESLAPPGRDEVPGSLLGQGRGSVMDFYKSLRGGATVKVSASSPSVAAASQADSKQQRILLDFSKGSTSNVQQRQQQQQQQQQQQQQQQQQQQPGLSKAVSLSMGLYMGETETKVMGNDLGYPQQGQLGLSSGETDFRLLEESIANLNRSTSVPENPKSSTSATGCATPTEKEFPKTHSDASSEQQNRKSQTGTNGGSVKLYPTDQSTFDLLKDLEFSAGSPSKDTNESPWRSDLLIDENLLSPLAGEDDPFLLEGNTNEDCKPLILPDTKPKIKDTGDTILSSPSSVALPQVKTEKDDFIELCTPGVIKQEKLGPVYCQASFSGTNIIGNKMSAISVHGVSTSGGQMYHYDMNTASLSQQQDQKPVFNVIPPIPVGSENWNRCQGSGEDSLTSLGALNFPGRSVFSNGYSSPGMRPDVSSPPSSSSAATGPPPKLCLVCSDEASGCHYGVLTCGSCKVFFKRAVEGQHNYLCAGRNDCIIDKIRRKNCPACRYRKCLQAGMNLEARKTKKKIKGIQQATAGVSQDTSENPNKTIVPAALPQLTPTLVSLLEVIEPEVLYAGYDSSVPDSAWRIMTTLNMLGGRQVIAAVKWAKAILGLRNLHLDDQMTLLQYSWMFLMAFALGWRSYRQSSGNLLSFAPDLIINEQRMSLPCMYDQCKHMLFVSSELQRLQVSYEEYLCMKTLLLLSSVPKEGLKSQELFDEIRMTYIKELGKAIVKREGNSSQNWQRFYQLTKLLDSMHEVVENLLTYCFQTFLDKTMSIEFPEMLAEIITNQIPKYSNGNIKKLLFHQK
Description: (§1) Monolayer cultures of COS-7 cells were grown in DMEM (Gibco) supplemented with 5% fetal bovine serum (FBS) (Biofluids) at 37° C. in a 5% CO2 incubator. Standard calcium phosphate transfection methods were used to introduce the wild type and mutant receptor expression vectors (pSVL) into COS-7 cells (100 mm plates [Costar] at a cell density of about 10^6 /plate were each treated with 10 μg of plasmid DNA). After ~16 hrs of incubation at 37° C. in a 5% CO2 incubator, the excess calcium phosphate and precipitate were removed by washing with phosphate buffered saline (PBS). The cells were incubated at 37° C. for another ~48 hr in DMEM/ 5% FBS and harvested by trypsinization followed by centrifugation (for 10 min at 1570 ×g) and washing 3 times with PBS. The washed cells were stored at -80° C. until used.
COS-7 cell cytosol containing the steroid-free receptors was prepared by cell lysis at -80° C. and centrifugation at 15,000 ×g and labeled as described for HTC cells (S. S. Simons and P. A. Miller, Biochem 23:6876-6882 (1984)). […] The specifically bound [^3 H]Dex was determined by first adding a 10% dextran-coated charcoal solution (added volume =20% of reaction solution volume) to remove free steroid and then subtracting the nonspecific binding seen in the presence of excess nonradioactive Dex.
(§2) Duplicate aliquots (72 μl) of COS-7 cell cytosol (33.5% in pH 8.8 TAPS/27 mM Na2 MoO4 buffer) were treated with 4 μl each of [^3 H]Dex (in pH 8.8 TAPS buffer) and various concentrations of non-radioactive competing steroid (in 20% EtOH in pH 8.8 TAPS buffer) (final concentration of [^3 H]Dex ≈3 ×10^-8 M). The average specific binding was determined after 2.5 or 24 hr of incubation as described above, expressed as percentage of the non-competed control and plotted versus the log10 of the concentration of the competing steroid.
The specificity of steroid binding was determined by Rodbard correction (Rodbard, 1973) of the data from a competition binding assay (S. S. Simons et al., Biochem. Biophys. Res. Comm. 86:793-800 (1979); Miller and Simons, 1988). […]

[2] = target: T2, C656G mutant glucocorticoid receptor (Rattus norvegicus, UniProt P06536, C656G/D98G); test: Competition binding assay with [3H]Dex, COS-7 cytosol, C656G receptor; design: Thus the full length receptor was removed from the VARO vector with BamHI and inserted into the SVL vector; expressed in transfected cells; host or cells: COS-7 (cytosol)
T2 sequence (P06536 1-795 D98G/C656G): T1 sequence (P06536 1-795 D98G/C640S) with S640C, C656G
Description: as §1
COS-7 cell cytosol containing the steroid-free receptors was prepared by cell lysis at -80° C. and centrifugation at 15,000 ×g and labeled as described for HTC cells (S. S. Simons and P. A. Miller, Biochem 23:6876-6882 (1984)). Briefly, 30% cytosol solutions containing ~21 mM Na2 MoO4 were prepared with three parts COS-7 cell cytosol, 2 parts pH 9.5 TAPS buffer, and 5 parts pH 8.8 TAPS buffer. The total EtOH in each experiment was kept constant and at a level of ≤1%. […] After incubation for 2.5 hr, the [^3 H]Dex-Mes-labeled solutions were quick-frozen at -78° C. for subsequent SDS-polyacrylamide gel electrophoresis analysis. The specifically bound [^3 H]Dex was determined by first adding a 10% dextran-coated charcoal solution (added volume =20% of reaction solution volume) to remove free steroid and then subtracting the nonspecific binding seen in the presence of excess nonradioactive Dex.
as §2
The specificity of steroid binding was determined by Rodbard correction (Rodbard, 1973) of the data from a competition binding assay (S. S. Simons et al., Biochem. Biophys. Res. Comm. 86:793-800 (1979); Miller and Simons, 1988). The initial data were collected from 2.5 hr binding assays because of concerns about the stability of the receptors over longer times.

SMILES | Relative Ka of Steroid Binding to Receptor [1] | Relative Ka of Steroid Binding to Receptor [2] | effect of replacement of Cys-656 with glycine on relative affinity ([2]; C656G vs wild type, compared with effect seen for C661S, 2.5 hr incubation) | change in absolute affinity for the glucocorticoid receptor as a result of C656G mutation ([2]; C656G vs wild type, from Table 1B and Table 2, aldosterone only "perhaps")
C[C@]12CC[C@@H]3c4ccc(O)cc4CC[C@H]3[C@@H]1CC[C@@H]2O [17β-Estradiol, 17β-estradiol] | 0.010 ± 0.007 | 0.0017 ± 0.0006 | – | –
C[C@]12CCC(=O)C=C1CC[C@@H]1[C@@H]2[C@@H](O)C[C@]2(C=O)[C@@H](C(=O)CO)CC[C@@H]12 [Aldosterone, aldosterone] | 0.18 ± 0.002 | – | less of an effect | decreased
CC#C[C@]1(O)CC[C@H]2[C@@H]3CCC4=CC(=O)CCC4=C3[C@@H](c3ccc(N(C)C)cc3)C[C@@]21C [RU486] | 6.8 ± 2.2 | 2.5 ± 0.7 | – | –
